How the values were obtained:
Type in all cases: cell-based
QGY-7701 = assay: MTT cell viability, QGY-7701 (liver cancer); conditions: QGY7701, 48 hour incubation, read-out: Drug concentrations for 50% cell viability (IC50)
Procedure: (§1) In vitro anticancer activity of the compound of Formula I was performed using popular MTT method (Archives of Biochemistry and Biophysics, 1993, 303, […]) against lung cancer, colorectal cancer, cervical cancer, osteosarcoma, leiomyosarcoma, malignant melanoma, pancreas cancer, prostate cancer, nasopharyngeal cancer, glioma, esophageal cancer, stomach cancer, and liver cancer.
(§2) Cell Culture: A549, DLD1, SW480, LOVO, HT-29, Hela, U-20S, MES-SA, SK-MEL-28, Panc-1, DU-145, CNE, U251, Eca-109, MGC80-3, QGY-7701, BEL-7404, PLC/PRF/5, Huh-7, and SGC-7901 cells were maintained in Dulbecco's Modified Eagle Medium (DMEM) (imported from Invitrogen, Carlsbad, Calif., USA) supplemented with 10% fetal bovine serum (FBS) (Si Ji Qing, Hangzhou, China) and 1% penicillin/streptomycin/amphotercin B (imported from Invitrogen, Carlsbad, Calif., USA). Cell Viability Determination: Popular MTT method (Archives of Biochemistry and Biophysics. 1993, 303, 474-482) was used to screen the in vitro effects of the invented drugs. Briefly, 5000 to 10000 cells were inoculated per well in a 96-well plate. After overnight incubation, drug was added to the wells at final concentration of 10 μM, 5 μM, 2.5 μM, 1.25 μM, or 1 μM, 0.75 μM, 0.5 μM and 0.25 μM in complete culture medium. […] The absorbance of each well at 570 nm wavelength was measured by a micro-plate reader after gentle shaking for 20 minutes. […]

BEL-7404 = assay: MTT cell viability, BEL-7404 (liver cancer); conditions: Homo sapiens, 48 hour incubation, read-out: Drug concentrations for 50% cell viability (IC50)
Procedure: as §1, §2

LOVO = assay: MTT cell viability, LOVO (colorectal cancer); conditions: Homo sapiens, 48 hour incubation, read-out: Drug concentrations for 50% cell viability (IC50)
Procedure: as §1, §2

Huh-7 = assay: MTT cell viability, Huh-7 (liver cancer); conditions: Homo sapiens, 48 hour incubation, read-out: Drug concentrations for 50% cell viability (IC50)
Procedure: as §1, §2

HT-29 = assay: MTT cell viability, HT-29 (colorectal cancer); conditions: Homo sapiens, 48 hour incubation, read-out: Drug concentrations for 50% cell viability (IC50)
Procedure: as §1, §2

PLC/PRF/5 = assay: MTT cell viability, PLC/PRF/5 (liver cancer); conditions: Homo sapiens, 48 hour incubation, read-out: Drug concentrations for 50% cell viability (IC50)
Procedure: as §1, §2

SGC-7901 = assay: MTT cell viability, SGC-7901 (stomach cancer); conditions: Homo sapiens, 48 hour incubation, read-out: Drug concentrations for 50% cell viability (IC50)
Procedure: as §1, §2

U251 = assay: MTT cell viability, U251 (glioma); conditions: Homo sapiens, U-251, 48 hour incubation, read-out: Drug concentrations for 50% cell viability (IC50)
Procedure: as §1, §2

Hela = assay: MTT cell viability, Hela (cervical cancer); conditions: Homo sapiens, 48 hour incubation, read-out: Drug concentrations for 50% cell viability (IC50)
Procedure: as §1, §2

DLD1 = assay: MTT cell viability, DLD1 (colorectal cancer); conditions: Homo sapiens, DLD-1, 48 hour incubation, read-out: Drug concentrations for 50% cell viability (IC50)
Procedure: as §1
(§3) Cell Culture: A549, DLD1, SW480, LOVO, HT-29, Hela, U-20S, MES-SA, SK-MEL-28, Panc-1, DU-145, CNE, U251, Eca-109, MGC80-3, QGY-7701, BEL-7404, PLC/PRF/5, Huh-7, and SGC-7901 cells were maintained in Dulbecco's Modified Eagle Medium (DMEM) (imported from Invitrogen, Carlsbad, Calif., USA) supplemented with 10% fetal bovine serum (FBS) (Si Ji Qing, Hangzhou, China) and 1% penicillin/streptomycin/amphotercin B (imported from Invitrogen, Carlsbad, Calif., USA). Cell Viability Determination: Popular MTT method (Archives of Biochemistry and Biophysics. 1993, 303, 474-482) was used to screen the in vitro effects of the invented drugs. Briefly, 5000 to 10000 cells were inoculated per well in a 96-well plate. After overnight incubation, drug was added to the wells at final concentration of 10 μM, 5 μM, 2.5 μM, 1.25 μM, or 1 μM, 0.75 μM, 0.5 μM and 0.25 μM in complete culture medium. Each dose level covered 4 equivalent wells. After 48 hour incubation, one tenth volume of 5 mg/mL MTT (thiazolyl blue tetrazolium bromide, Sigma-Aldrich) stock solution was added, and incubation continued for 2 hours. Then medium was removed and 100 μL of isopropanol solution comprising 86% isopropanol, 4% aqueous 1N HCl and 10% aqueous solution of 10% SDS was added. The absorbance of each well at 570 nm wavelength was measured by a micro-plate reader after gentle shaking for 20 minutes. Drug concentrations of 50% cell viability (IC50) were calculated by LOGIT method.

CNE = assay: MTT cell viability, CNE (nasopharyngeal cancer); conditions: Homo sapiens, 48 hour incubation, read-out: Drug concentrations for 50% cell viability (IC50)
Procedure: as §1, §2

SK-MEL-28 = assay: MTT cell viability, SK-MEL-28 (malignant melanoma); conditions: Homo sapiens, 48 hour incubation, read-out: Drug concentrations for 50% cell viability (IC50)
Procedure: as §1, §2

DU-145 = assay: MTT cell viability, DU-145 (prostate cancer); conditions: Homo sapiens, 48 hour incubation, read-out: Drug concentrations for 50% cell viability (IC50)
Procedure: as §1, §3

A549 = assay: MTT cell viability, A549 (lung cancer); conditions: Homo sapiens, 48 hour incubation, read-out: Drug concentrations for 50% cell viability (IC50)
Procedure: as §1, §3

Eca-109 = assay: MTT cell viability, Eca-109 (esophageal cancer); conditions: Homo sapiens, 48 hour incubation, read-out: Drug concentrations for 50% cell viability (IC50)
Procedure: as §1, §2

Panc-1 = assay: MTT cell viability, Panc-1 (pancreatic cancer); conditions: Homo sapiens, 48 hour incubation, read-out: Drug concentrations for 50% cell viability (IC50)
Procedure: as §1, §2

MGC80-3 = assay: MTT cell viability, MGC80-3 (stomach cancer); conditions: Homo sapiens, MGC-803, 48 hour incubation, read-out: Drug concentrations for 50% cell viability (IC50)
Procedure: as §1, §2

U-20S = assay: MTT cell viability, U-20S (osteosarcoma); conditions: 48 hour incubation, read-out: Drug concentrations for 50% cell viability (IC50)
Procedure: as §1, §3

SW480 = assay: MTT cell viability, SW480 (colorectal cancer); conditions: Homo sapiens, 48 hour incubation, read-out: Drug concentrations for 50% cell viability (IC50)
Procedure: as §1, §2

MES-SA = assay: MTT cell viability, MES-SA (leiomyosarcoma); conditions: Homo sapiens, 48 hour incubation, read-out: Drug concentrations for 50% cell viability (IC50)
Procedure: as §1, §2

IC50 (QGY-7701) [µM] | IC50 (BEL-7404) [µM] | IC50 (LOVO) [µM] | IC50 (Huh-7) [µM] | IC50 (HT-29) [µM] | IC50 (PLC/PRF/5) [µM] | IC50 (SGC-7901) [µM] | IC50 (U251) [µM] | IC50 (Hela) [µM] | IC50 (DLD1) [µM] | IC50 (CNE) [µM] | IC50 (SK-MEL-28) [µM] | IC50 (DU-145) [µM] | IC50 (A549) [µM] | IC50 (Eca-109) [µM] | IC50 (Panc-1) [µM] | IC50 (MGC80-3) [µM] | IC50 (U-20S) [µM] | IC50 (SW480) [µM] | IC50 (MES-SA) [µM] | SMILES
3.5 | 1.11 | 2.15 | 2.5 | 0.72 | 2.5 | 2.5 | 1 | 1.2 | 0.29 | 1.36 | 0.22 | 0.43 | 2.5 | 3.45 | 1.6 | 1.2 | 0.43 | 1.17 | 1.2 | CS(=O)(=O)c1cc2c(o1)C(=O)c1ccccc1C2=O [Compound I, 2-methylsulfonyl-naphtho[2,3-b]furan-4,9-dione]
2.5 | 1.1 | 4.57 | 2.5 | 0.78 | 2 | 2.5 | 1 | 1.49 | 0.28 | 1.25 | 0.24 | 0.5 | 2.5 | 3.8 | 1.25 | 1.2 | 0.39 | 1.25 | 1 | C[S+]([O-])c1cc2c(o1)C(=O)c1ccccc1C2=O (stereo not drawn) [Compound II, 2-methylsulfinyl-naphtho[2,3-b]furan-4,9-dione]
 |  |  |  |  |  |  |  |  | 2.51 |  |  | 5 | > 10 |  |  |  | 3.61 |  |  | CS(=O)(=O)c1oc2c(c1-c1ccccc1)C(=O)c1ccccc1C2=O [Compound XV, 2-methylsulfonyl-3-phenyl-naphtho[2,3-b]furan-4,9-dione]
 |  |  |  |  |  |  |  |  | 1 |  |  | 3.2 | 6.89 |  |  |  | 1.25 |  |  | C[S+]([O-])c1oc2c(c1-c1ccccc1)C(=O)c1ccccc1C2=O (stereo not drawn) [Compound XVI, 2-methylsulfinyl-3-phenyl-naphtho[2,3-b]furan-4,9-dione]
